Measurements reported in patent US4719229A, “Antihypercholesterolemic agents” (Merck & Co., Inc., priority 1987, dated 1988).

Target: T1, HMG-CoA reductase (Rattus norvegicus, UniProt P51639)
T1 construct: from tissue; inferred from the cited J. Med. Chem. 1985, 28, 347
T1 sequence (P51639 1-887): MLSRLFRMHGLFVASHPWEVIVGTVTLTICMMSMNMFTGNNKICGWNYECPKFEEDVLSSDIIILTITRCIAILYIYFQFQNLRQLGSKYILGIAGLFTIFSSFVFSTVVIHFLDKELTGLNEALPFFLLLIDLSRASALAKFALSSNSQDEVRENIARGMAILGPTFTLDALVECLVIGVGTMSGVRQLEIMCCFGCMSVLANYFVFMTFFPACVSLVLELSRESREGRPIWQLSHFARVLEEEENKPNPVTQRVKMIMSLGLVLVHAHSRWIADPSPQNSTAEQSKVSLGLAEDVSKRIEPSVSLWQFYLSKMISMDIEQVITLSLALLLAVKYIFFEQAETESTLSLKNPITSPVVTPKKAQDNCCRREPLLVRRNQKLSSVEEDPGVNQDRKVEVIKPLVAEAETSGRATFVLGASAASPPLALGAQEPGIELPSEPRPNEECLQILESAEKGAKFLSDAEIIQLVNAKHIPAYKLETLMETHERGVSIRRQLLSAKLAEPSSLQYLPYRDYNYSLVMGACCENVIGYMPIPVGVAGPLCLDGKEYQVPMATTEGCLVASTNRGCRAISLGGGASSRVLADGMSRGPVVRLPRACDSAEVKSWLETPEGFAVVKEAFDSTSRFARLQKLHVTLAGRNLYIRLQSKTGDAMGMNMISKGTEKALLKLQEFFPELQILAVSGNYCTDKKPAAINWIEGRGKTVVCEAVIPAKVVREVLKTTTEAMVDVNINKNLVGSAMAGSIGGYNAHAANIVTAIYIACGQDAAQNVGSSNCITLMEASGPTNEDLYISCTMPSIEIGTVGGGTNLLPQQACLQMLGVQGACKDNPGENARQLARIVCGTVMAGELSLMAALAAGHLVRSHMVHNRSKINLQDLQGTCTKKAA
Experiment: intrinsic HMG-CoA reductase inhibition activity, in vitro protocol of J. Med. Chem., 1985, 28, page 347
Type: biochemical
Conditions: tested as the potassium salt
Method: The intrinsic HMG-CoA reductase inhibition activity of the claimed compounds is measured in the in vitro protocol described is J. Med. Chem., 1985, 28, page 347.

Question: With `C[C@@H]1CC[C@H]2C(=CC(O)[C@H](C)[C@@H]2CC[C@@H](O)C[C@@H](O)CC(=O)O)C1` (stereo partly shown) as the compound, how does the IC50 read?
Answer: 5.87 µM
